Results reported in US11090308B2, “Methods of treating liver disorders or lipid disorders with a THR-beta agonist” (Madrigal Pharmaceuticals, Inc., priority 2016, dated 2021).

What was measured:
[1] = Tissue distribution by quantitative whole-body autoradiography, blood and plasma radioactivity in LE rats (Group 3); format: in vivo, rat; conditions: for Tissue to Plasma Ratio, Adrenal Gland / Tissue to Plasma Ratio, Heart / Tissue to Plasma Ratio, Kidney / Tissue to Plasma Ratio, Liver / Tissue to Plasma Ratio, Lung / Tissue to Plasma Ratio, Muscle / Tissue to Plasma Ratio, Skin / Tissue to Plasma Ratio, Spleen / Tissue to Plasma Ratio, Thyroid / Tissue to Plasma Ratio, Brain: rat
Experimental: (§1) The study utilized 2 groups of male SD rats (Groups 1 and 2) and 1 group of male LE rats (Group 3); which were obtained from Hilltop Lab Animals, Inc. (Scottdale, Pa.). Group 1 was used for evaluation of excretion mass balance; Group 2 was used for evaluation of plasma total radioactivity PK; and Group 3 was used for evaluation of tissue distribution of total radioactivity. All rats received a single PO dose of [^14C]MGL-3196. The target dose was 5 mg/kg using a formulation prepared in a 4% DMSO/96% of 2% Klucel, 0.1% Tween-80, 0.09% methylparaben and 0.01% propylparaben in purified MilliQ water vehicle.

[2] = Plasma total radioactivity pharmacokinetics in SD rats (Group 2); format: in vivo, rat
Experimental: as §1

[3] = Excretion mass balance in rats after a single oral dose of [14C]MGL-3196 (Group 1); format: in vivo, rat; conditions: for Percent Recovery, Carcass / Percent Recovery, Residues / Percent Recovery, Total: totals up to 168 h
Experimental: as §1
The following studies have been conducted: (a) in vitro drug protein binding, transporter (organic anion transporting polypeptide [OATP], P-glycoprotein [P-gp], breast cancer-related protein [BCRP], and multiple drug resistance protein 1 [MDR1]), and cytochrome P-450 enzyme assays to investigate absorption, distribution, and excretion; (b) in vivo MGL-3196 rat and dog oral PK and bioavailability studies; (c) in vivo ^14C-MGL-3196 rat and dog oral pharmacokinetics, absorption, excretion, and tissue distribution by quantitative whole-body autoradiography (QWBA) studies; and (d) liver disposition of MGL-3196 using an in vitro sandwiched hepatocyte model system (B-CLEAR® technology) in dog (SCDH) and human (SCHH) hepatocytes.

[4] = Dog 14C-MGL-3196 mass balance study; format: in vivo
Description: Tables 2A-2B show ^14C-MGL-3196 dog ADME study design.

[5] = male LE rats Group 3, single PO 5 mg/kg
[6] = pigmented male rats, single PO dose
[7] = male SD rats Group 2, single PO 5 mg/kg
[8] = male SD rats Group 1, single PO 5 mg/kg, mean
[9] = male SD rats Group 1, single PO 5 mg/kg, mean, through 168 h
[10] = 3 male beagle dogs, 0-168 hr post-dose, Mean ± SD (% RSD)

CC(C)c1cc(Oc2c(Cl)cc(-n3nc(C#N)c(=O)[nH]c3=O)cc2Cl)n[nH]c1=O [[^14C]MGL-3196]
Tissue to Plasma Ratio, Adrenal Gland ([1]; 1 h): 0.34
Tissue to Plasma Ratio, Heart ([1]; 1 h): 0.30
Tissue to Plasma Ratio, Kidney ([1]; 1 h): 3.51
Tissue to Plasma Ratio, Liver ([1]; 1 h): 16.28
Tissue to Plasma Ratio, Lung ([1]; 1 h): 0.41
Tissue to Plasma Ratio, Muscle ([1]; 1 h): 0.12
Tissue to Plasma Ratio, Skin ([1]; 1 h): 0.21
Tissue to Plasma Ratio, Spleen ([1]; 1 h): 0.17
Tissue to Plasma Ratio, Thyroid ([1]; 1 h): 0.27
Tissue to Plasma Ratio, Adrenal Gland ([1]; 2 h): 0.35
Tissue to Plasma Ratio, Heart ([1]; 2 h): 0.26
Tissue to Plasma Ratio, Kidney ([1]; 2 h): 2.28
Tissue to Plasma Ratio, Liver ([1]; 2 h): 12.40
Tissue to Plasma Ratio, Lung ([1]; 2 h): 0.42
Tissue to Plasma Ratio, Muscle ([1]; 2 h): 0.07
Tissue to Plasma Ratio, Skin ([1]; 2 h): 0.23
Tissue to Plasma Ratio, Spleen ([1]; 2 h): 0.10
Tissue to Plasma Ratio, Thyroid ([1]; 2 h): 0.45
Tissue to Plasma Ratio, Adrenal Gland ([1]; 4 h): 0.28
Tissue to Plasma Ratio, Brain ([1]; 4 h): 0.03
Tissue to Plasma Ratio, Heart ([1]; 4 h): 0.29
Tissue to Plasma Ratio, Kidney ([1]; 4 h): 2.97
Tissue to Plasma Ratio, Liver ([1]; 4 h): 12.76
Tissue to Plasma Ratio, Lung ([1]; 4 h): 0.48
Tissue to Plasma Ratio, Muscle ([1]; 4 h): 0.07
Tissue to Plasma Ratio, Skin ([1]; 4 h): 0.30
Tissue to Plasma Ratio, Spleen ([1]; 4 h): 0.13
Tissue to Plasma Ratio, Thyroid ([1]; 4 h): 0.20
Tissue to Plasma Ratio, Adrenal Gland ([1]; 8 h): 0.56
Tissue to Plasma Ratio, Brain ([1]; 8 h): 0.09
Tissue to Plasma Ratio, Heart ([1]; 8 h): 0.62
Tissue to Plasma Ratio, Kidney ([1]; 8 h): 2.98
Tissue to Plasma Ratio, Liver ([1]; 8 h): 11.90
Tissue to Plasma Ratio, Lung ([1]; 8 h): 0.68
Tissue to Plasma Ratio, Muscle ([1]; 8 h): 0.23
Tissue to Plasma Ratio, Skin ([1]; 8 h): 0.72
Tissue to Plasma Ratio, Spleen ([1]; 8 h): 0.36
Tissue to Plasma Ratio, Thyroid ([1]; 8 h): 0.46
Tissue to Plasma Ratio, Adrenal Gland ([1]; Cmax): 0.51
Tissue to Plasma Ratio, Brain ([1]; Cmax): 0.08
Tissue to Plasma Ratio, Heart ([1]; Cmax): 0.57
Tissue to Plasma Ratio, Kidney ([1]; Cmax): 2.97
Tissue to Plasma Ratio, Liver ([1]; Cmax): 12.76
Tissue to Plasma Ratio, Lung ([1]; Cmax): 0.62
Tissue to Plasma Ratio, Muscle ([1]; Cmax): 0.21
Tissue to Plasma Ratio, Skin ([1]; Cmax): 0.65
Tissue to Plasma Ratio, Spleen ([1]; Cmax): 0.33
Tissue to Plasma Ratio, Thyroid ([1]; Cmax): 0.42
Radioactivity concentrations at 1392 h post-dose in 7 of 40 tissues (blood, liver, Harderian gland, pancreas, pigmented skin, lung, eye lens) ([1]; male LE rats): > 7.90 ng equiv/g
radioactivity quantifiable in blood through ([1]; male LE rats): 768 h
radioactivity quantifiable in plasma through ([1]; male LE rats): 168 h
AUCinf obs of blood total radioactivity [1, 5]: 54361 ng equiv·h/g
AUCinf obs of plasma total radioactivity [1, 5]: 20430 ng equiv·h/mL
Cmax of plasma total radioactivity (by LSC) [1, 5]: 1078 ng equiv/mL
Liver AUC (exposure) higher than plasma [1, 6]: approximately 10 ×
blood AUC higher than plasma [1, 6]: about 2 ×
kidney cortex AUC higher than plasma [1, 6]: approximately 3 ×
liver:plasma AUCall ratio [1, 6]: 10.5
Liver AUC (exposure) higher than plasma ([1]; pigmented male rats, single PO dose, listed as 14C-MGL-3196): ~10 ×
Tissue to plasma ratios for all tissues except liver, kidney, urinary bladder, and cecum ([1]; throughout the distribution phase (up to 8 h post-dose)): < 1
mean AUCinf obs of plasma total radioactivity [2, 7]: 25346 ng equiv·h/mL
mean Cmax of plasma total radioactivity [2, 7]: 2230 ng equiv/mL
radioactivity quantifiable in plasma through ([2]; male SD rats, last time point for this group): 48 h
Percent Recovery, Carcass ([3]; Mean): 1.1%
Percent Recovery, Residues ([3]; Mean): 1.3%
Percent Recovery, Total ([3]; Mean): 87.2%
Percent Recovery, Carcass ([3]; Ra#3): 1.0%
Percent Recovery, Residues ([3]; Ra#3): 0.9%
Percent Recovery, Total ([3]; Ra#3): 87.3%
Percent Recovery, Carcass ([3]; Rat#1): 1.1%
Percent Recovery, Residues ([3]; Rat#1): 1.7%
Percent Recovery, Total ([3]; Rat#1): 82.6%
Percent Recovery, Carcass ([3]; Rat#2): 1.2%
Percent Recovery, Residues ([3]; Rat#2): 1.3%
Percent Recovery, Total ([3]; Rat#2): 91.7%
radioactivity recovered in the cage residues, % of the administered dose [3, 8]: 1.3%
radioactivity recovered in the carcass, % of the administered dose [3, 8]: 1.1%
radioactivity recovered in the feces, % of the administered dose [3, 9]: 68.6%
radioactivity recovered in the urine, % of the administered dose [3, 9]: 16.2%
total recovery of radioactivity, % of the administered dose [3, 9]: 87.2%
% of Dose in Cage Residue [4, 10]: 4.55 ± 3.399 (74.8) %
% of Dose in Feces [4, 10]: 76.3 ± 25.62 (33.6) %
% of Dose in Urine [4, 10]: 2.57 ± 1.296 (50.4) %
Total % of Dose Recovered (urine + feces + cage residue) [4, 10]: 83.37 ± 24.063 (28.9) %
% of total administered recovered in feces ([4]; dog, 100 mg/kg): ~83%
% of total administered recovered in urine ([4]; dog, 100 mg/kg): 2.5%
share of the radioactivity recovered that was in feces ([4]; dog, 100 mg/kg): at least 92%
share of the radioactivity recovered that was in urine ([4]; dog, 100 mg/kg): 2.7%
